For one test, the system named is AKR2. Also on record: key: A: Very high confidence in the interaction; B: High confidence in the interaction; D: Moderate confidence in the interaction. As to conditions: AKR2-interacting proteins (IPs), physical interactome; ref https://doi.org/10.3390/vaccines8010077; cited from earlier work. From the text:
Supplement BSR-2021-1120_supp1.zip/BSR-2021-1120_suppST4.xlsx, sheet "BPs related to AKR2-IPs" | column: Predicted Biological Score (PBS)

The target of the next test is recAkirin2 (Homo sapiens, UniProt Q53H80). The experiment in a line: Akirin2–IP interactions in HL60 lysate, c-Myc pull-down and dot blot. Format: binding. As to conditions: recAkirin2 on c-Myc beads with HL60 lysate, dot blot; compared with SNRNP70, Student's t test P<0.05, n=2 biological replicates. Here is the method:
Some of the previously identified Akirin2 IPs were selected for analysis of Akirin2–IP interactions in human HL60 cells. The HL60 cells were pelleted, washed with cold PBS and proteins were extracted by adding 1 ml of cold TBS supplemented with protease inhibitor cocktail (Complete Mini EDTA-free, Roche, Switzerland). Cells were disrupted passing through a 20 G needle and sonicated (3 min/cycle, 3 cycles, 25°C) until lysate was clear. Lysate was centrifuged at 12000×g for 30 min at 4°C, after which the supernatant was collected, and protein concentration was determined using the BCA Protein Assay using BSA as the standard. The COOH-(Myc-([…])-DDK)-tagged recAkirin2 produced in human cells was used for interactions with the identified Akirin2–IPs, mediator of RNA polymerase II transcription subunit 16 (THRAP5; Q9Y2X0), phosphatidylinositol transfer protein-α isoform (PITPNA; Q00169), protein Wnt-2 (WNT2; P09544), and splicing factor 3a subunit 1 (SF3A1; Q15459). The U1 small nuclear ribonucleoprotein 70 kDa (SNRNP70; P08621) was used as protein negative control. […] Area and percent analysis of each chemiluminescence dot signal were obtained and analyzed using Fiji program (ImageJ 1.52n; https://downloads.tomsguide.com/ImageJ,0301-31184.html). […]

For a further test, the system named is human HL60 cells. Description: SWATH-MS proteomics, differential protein representation, akirin2 KO vs WT HL60 cells. Format: cell-based. The method, then: Total proteins were extracted from WT and akirin2 KO HL60 cells using the AllPrep DNA/RNA/Protein Mini Kit (Qiagen) and protein concentration was determined using the BCA Protein Assay with BSA (Sigma–Aldrich) as standard. Protein extracts (150 µg per sample, n=3 biological replicates) from each WT and KO cells were trypsin digested using the FASP Protein Digestion Kit (Expedeon Ltd., Abcam, Cambridge, U.K.) and sequencing grade trypsin (Promega, Madison, WI, U.S.A.) following manufacturer’s recommendations. The resulting peptides were finally desalted on to OMIX Pipette tips C18 (Agilent Technologies, Santa Clara, CA, U.S.A.), dried down and stored at −20 °C until mass spectrometry analysis. […] Three micrograms of each protein digest from the three biological replicates of WT and akirin2 KO HL60 cells were used for the generation of the reference spectral ion library as part of the SWATH-MS analysis.
Peptides were eluted in a 120-min gradient from 5 to 30% solvent B in solvent A followed by 15-min gradient from 30 to 60% solvent B in solvent A (solvent A: 0.1% formic acid in water, solvent B: 0.1% formic acid in acetonitrile) and directly injected into the mass spectrometer for analysis. For IDA experiments, the mass spectrometer was set to scanning full spectra (350–1400 m/z) using 250 ms accumulation time per spectrum, followed by up to 50 MS/MS scans (100–1500 m/z). Candidate ions with a charge state between +2 and +5 counts per second above a minimum threshold of 100 were isolated for fragmentation. One MS/MS spectrum was collected for 100 ms, before adding those precursor ions to the exclusion list for 15 s (mass spectrometer operated by Analyst TF 1.6, AB Sciex). Dynamic background subtraction was turned off. MS/MS analyses were recorded in high-sensitivity mode with rolling collision energy on and a collision energy spread of 5. For SWATH quantitative analysis, six independent samples (three replicates from WT and akirin2 KO HL60 cells, 5 µg each) were subjected to the cyclic DIA of mass spectra using the SWATH variable windows calculator (V 1.0, AB Sciex) and the SWATH acquisition method editor (AB Sciex), similar to established methods. […] For these experiments, a 50-ms survey scan (350–1400 m/z) was acquired at the beginning of each cycle, and SWATH–MS/MS spectra were collected from 100–1500 m/z for 70 ms at high-sensitivity mode, resulting in a cycle time of 3.6 s. Collision energy for each window was determined according to the calculation for a charge +2 ion-centered upon the window with a collision energy spread of 15. To create a spectral library of all the detectable peptides in the samples, the IDA MS raw files were combined and subjected to database search in unison using ProteinPilot software v. 5.0.1 (AB Sciex) with the Paragon algorithm. […] The detected protein threshold was set at 0.05. An independent false discovery rate (FDR) analysis, using the target–decoy approach provided by Protein Pilot (AB Sciex; https://sciex.com/products/software/proteinpilot-software), was used to assess the quality of identifications. Positive identifications were considered when identified proteins reached 1% of global FDR. […] Global normalization was performed according to the Total Area Sums (TAS) of all detected proteins in the samples. […] Heatmaps were prepared using the Heatmapper (http://www.heatmapper.ca/expression/) with average linkage and Euclidean distance measurement method.

The mark [1] stands for this setting: akirin2 KO vs WT HL60 cells, sheet "Under-represented in KO".
[2] abbreviates: SWATH-MS, akirin2 KO vs WT HL60 cells, under-represented in KO.
The mark [3] stands for this setting: KO vs WT HL60 cells, sheet "Under-represented in KO".
[4] abbreviates: KO vs WT, akirin2 KO vs WT HL60 cells, sheet "Under-represented in KO".
Setting [5] is: Over-represented in KO, KO vs WT HL60 cells.
Setting [6] is: SWATH-MS, akirin2 KO vs WT HL60 cells, sheet "Under-represented in KO".
Setting [7] is: SWATH-MS, akirin2 KO vs WT HL60 cells, over-represented in KO.

recAkirin2, sequence (Q53H80 whole entry): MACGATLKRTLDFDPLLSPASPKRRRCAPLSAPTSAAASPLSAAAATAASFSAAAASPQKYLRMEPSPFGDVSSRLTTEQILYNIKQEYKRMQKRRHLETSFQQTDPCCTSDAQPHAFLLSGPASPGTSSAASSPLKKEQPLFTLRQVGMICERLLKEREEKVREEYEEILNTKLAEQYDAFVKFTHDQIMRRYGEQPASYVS

Turning to RGPD3, the “Predicted Biological Score (PBS)” value in the test with AKR2 was “A”.

On to RGPD5, for which the “Predicted Biological Score (PBS)” value with AKR2 is on record as “A”. Regarding RGPD8, the “Predicted Biological Score (PBS)” value in the test with AKR2 is recorded as “A”. For “SNRNP70: U1 small nuclear ribonucleoprotein 70 kDa (P08621), protein negative control”, in the test with recAkirin2, the “Akirin2–IP interaction” value is “low interaction with Akirin2”. WDYHV1: the “Predicted Biological Score (PBS)” value in the test with AKR2 was “A”. For the substance sp¦Q5T4S7¦UBR4_HUMAN, in the test on human HL60 cells (setting [1]), the “Fold Change” value was found to be 0.241 and the “Log (Fold Change)” value was -0.6179. On to sp¦Q6P2Q9¦PRP8_HUMAN, for which, in the test on human HL60 cells (setting [2]), the “Fold Change” value came to 0.7423 and the “Log (Fold Change)” value was -0.1294. sp¦Q7Z6Z7¦HUWE1_HUMAN: in the test with human HL60 cells (setting [3]), the “Fold Change” value was found to be 0.5255 and the “Log (Fold Change)” value is -0.2794. With sp¦Q8NE71¦ABCF1_HUMAN, in the test with human HL60 cells (setting [4]), the “Fold Change” value amounted to 0.6253 and the “Log (Fold Change)” value was -0.2039. With sp¦Q8NF50¦DOCK8_HUMAN, in the test on human HL60 cells (setting [1]), the “Fold Change” value is listed as 0.4042 and the “Log (Fold Change)” value was -0.3934. For sp¦Q9BRF8¦CPPED_HUMAN, in the test with human HL60 cells (setting [4]), the “Fold Change” value is given as 0.571 and the “Log (Fold Change)” value is given as -0.2434. Take sp¦Q9H0U4¦RAB1B_HUMAN: in the test on human HL60 cells (setting [2]), the “Fold Change” value stood at 0.704 and the “Log (Fold Change)” value was -0.1524. On to sp¦Q9NR31¦SAR1A_HUMAN, for which, in the test with human HL60 cells (setting [1]), the “Fold Change” value stood at 0.4316 and the “Log (Fold Change)” value is -0.3649.

For sp¦Q9P287¦BCCIP_HUMAN, in the test with human HL60 cells (setting [5]), the “Fold Change” value came to 1.299 and the “Log (Fold Change)” value is on record as 0.1134. Regarding sp¦Q9UNS2¦CSN3_HUMAN, in the test with human HL60 cells (setting [2]), the “Fold Change” value is reported as 0.6926 and the “Log (Fold Change)” value is -0.1595. In the case of sp¦Q9Y4W6¦AFG32_HUMAN, in the test on human HL60 cells (setting [4]), the “Fold Change” value stood at 0.6186 and the “Log (Fold Change)” value is -0.2086.

For sp¦Q9Y5B9¦SP16H_HUMAN, in the test on human HL60 cells (setting [2]), the “Fold Change” value amounted to 0.7335 and the “Log (Fold Change)” value is on record as -0.1346. For sp¦Q9Y266¦NUDC_HUMAN, in the test with human HL60 cells (setting [5]), the “Fold Change” value was determined as 1.364 and the “Log (Fold Change)” value stood at 0.135. For sp¦Q9Y490¦TLN1_HUMAN, in the test with human HL60 cells (setting [5]), the “Fold Change” value is 1.355 and the “Log (Fold Change)” value is listed as 0.1319.

Regarding sp¦Q86UX7¦URP2_HUMAN, in the test on human HL60 cells (setting [6]), the “Fold Change” value came to 0.7476 and the “Log (Fold Change)” value is recorded as -0.1263. Take sp¦Q96A72¦MGN2_HUMAN: in the test on human HL60 cells (setting [1]), the “Fold Change” value is 0.6271 and the “Log (Fold Change)” value is given as -0.2026. Take sp¦Q01469¦FABP5_HUMAN: in the test with human HL60 cells (setting [7]), the “Fold Change” value is reported as 1.478 and the “Log (Fold Change)” value came to 0.1698. Regarding sp¦Q01650¦LAT1_HUMAN, in the test with human HL60 cells (setting [4]), the “Fold Change” value is on record as 0.603 and the “Log (Fold Change)” value was -0.2197. For the substance sp¦Q02880¦TOP2B_HUMAN, in the test on human HL60 cells (setting [6]), the “Fold Change” value turned out to be 0.7738 and the “Log (Fold Change)” value is reported as -0.1113. In the case of sp¦Q07812¦BAX_HUMAN, in the test with human HL60 cells (setting [3]), the “Fold Change” value is 0.5501 and the “Log (Fold Change)” value was -0.2596. As for sp¦Q08945¦SSRP1_HUMAN, in the test on human HL60 cells (setting [1]), the “Fold Change” value was determined as 0.3484 and the “Log (Fold Change)” value is given as -0.4579. In the case of sp¦Q09666¦AHNK_HUMAN, in the test on human HL60 cells (setting [7]), the “Fold Change” value is recorded as 1.42 and the “Log (Fold Change)” value is on record as 0.1523. As for sp¦Q13283¦G3BP1_HUMAN, in the test on human HL60 cells (setting [5]), the “Fold Change” value worked out at 1.326 and the “Log (Fold Change)” value worked out at 0.1226. Turning to sp¦Q14165¦MLEC_HUMAN, in the test on human HL60 cells (setting [2]), the “Fold Change” value turned out to be 0.7439 and the “Log (Fold Change)” value is recorded as -0.1285. With sp¦Q14204¦DYHC1_HUMAN, in the test on human HL60 cells (setting [1]), the “Fold Change” value was 0.6536 and the “Log (Fold Change)” value is -0.1847. sp¦Q14289¦FAK2_HUMAN: in the test with human HL60 cells (setting [3]), the “Fold Change” value turned out to be 0.4591 and the “Log (Fold Change)” value is on record as -0.3381. sp¦Q14692¦BMS1_HUMAN: in the test on human HL60 cells (setting [4]), the “Fold Change” value amounted to 0.6053 and the “Log (Fold Change)” value was -0.218. With sp¦Q15056¦IF4H_HUMAN, in the test with human HL60 cells (setting [5]), the “Fold Change” value was found to be 1.397 and the “Log (Fold Change)” value was 0.1451.

In the case of sp¦Q92608¦DOCK2_HUMAN, in the test on human HL60 cells (setting [3]), the “Fold Change” value turned out to be 0.4625 and the “Log (Fold Change)” value was -0.3349. With sp¦Q92616¦GCN1_HUMAN, in the test on human HL60 cells (setting [3]), the “Fold Change” value was found to be 0.4921 and the “Log (Fold Change)” value is -0.3079.

(Values after paper PMC8298264, “Function of cofactor Akirin2 in the regulation of gene expression in model human neutrophil-like HL60 cells” (Bioscience Reports, 2021).)
